Where two headings read alike, the source gives them in different places.

We go through 14 compounds from patent US20160046618A1, “Cyclopropyl Fused Thiazin-2-Amine Compounds as Beta-Secretase Inhibitors and Methods of Use” (AMGEN INC., priority 2014, published 2016).

One assay has as its target human recombinant BACE1 (Homo sapiens (Human), UniProt P56817). As to the kind of experiment: In vitro enzymatic BACE1 FRET assay. The note with it: read-out: IC50 IP (μM) BACE1 enzyme. It counts as biochemical. As for the experimental part: (§1) These recombinant proteins were further purified using Ni-NTA affinity chromatography (Qiagen). […] This assay is effectively started by the addition of FRET substrate (50 nM) and the combination is incubated for one hour. The FRET assay is terminated by addition of Tris buffer, which raises the pH to neutrality, and the fluorescence is determined. The FRET substrate is a peptide with commercially available fluorophore and quencher, on opposite sides of the BACE cleavage site. Proteolytic cleavage of the FRET substrate releases quenching of fluorescence (excitation 488 nm and emission 590 nm).

The next assay concerns the target human recombinant BACE2 (Homo sapiens (Human), UniProt Q9Y5Z0). As to the kind of experiment: In vitro enzymatic BACE2 FRET assay. Type of assay: biochemical. The settings on record: read-out: IC50 IP (μM) BACE2 enzyme. As to the method:
as §1

Assay [1] concerns Aβ40 in conditioned medium of cells stably expressing Amyloid Precursor Protein (APP). Put plainly: In vitro BACE-1 cell-based assay (Aβ40 sandwich ELISA). The note with it: read-out: IC50 IP (μM) BACE1 cell. As for the experimental part: In Vitro BACE-1 Cell-Based Assay
The cell-based assay measures inhibition or reduction of Aβ40 in conditioned medium of test compound treated cells expressing amyloid precursor protein. Cells stably expressing Amyloid Precursor Protein (APP) were plated at a density of 40K cells/well in 96 well plates (Costar). The cells were cultivated for 24 hours at 37° C. and 5% CO2 in DMEM supplemented with 10% FBS. The test compounds were then added to cells in 10-point dose response concentrations with the starting concentration being either 100 μM or 10 μM. The compounds were diluted from stock solutions in DMSO and the final DMSO concentration of the test compounds on cells was 0.1%. After 24 h of incubation with the test compounds the supernatant conditioned media was collected and the Aβ40 levels were determined using a sandwich ELISA. The IC50 of the compound was calculated from the percent of control or percent inhibition of Aβ40 as a function of the concentration of the test compound.
The sandwich ELISA to detect Aβ40 was performed in 96 well microtiter plates, which were pre-treated with goat anti-rabbit IgG (Pierce). The capture and detecting antibody pair that were used to detect Aβ40 from cell supernatants were affinity purified pAb40 (Biosource) and biotinylated 6E10 (Signet Labs Inc.), respectively. The optimal concentration for the pAb40 antibody was 3 μg/ml in Superblock/TBS (Pierce) that was supplemented with 0.05% Tween 20 (Sigma). […] Cellular supernatants were incubated with the capture antibody for 3 h at 4° C., followed by 3 wash steps in TBS-tween (0.05%). The detecting antibody incubation was for 2 h at 4° C., again followed by the wash steps as described previously. The final readout of the ELISA is Time-Resolved Fluorescence (counts per minute) using Delfia reagents Streptavidin-Europium and Enhancement solutions (Perkin Elmer) and the Victor 2 multilabel counter (Perkin Elmer).
For orientation: ELISA stands for enzyme-linked immunosorbent assay.

For the next assay, the target named is Recombinant Cat D (Homo sapiens (Human), UniProt P07339). Put plainly: In vitro enzymatic Cathepsin D (Cat D) FRET assay. The note with it: read-out: IC50 IP (μM) CatD. It counts as biochemical. As to the method: In Vitro Enzymatic Cathepsin D (Cat D) FRET (Fluorescence Resonance Energy Transfer) Assay
Sequence of Recombinant Cat D (P07339 65-412): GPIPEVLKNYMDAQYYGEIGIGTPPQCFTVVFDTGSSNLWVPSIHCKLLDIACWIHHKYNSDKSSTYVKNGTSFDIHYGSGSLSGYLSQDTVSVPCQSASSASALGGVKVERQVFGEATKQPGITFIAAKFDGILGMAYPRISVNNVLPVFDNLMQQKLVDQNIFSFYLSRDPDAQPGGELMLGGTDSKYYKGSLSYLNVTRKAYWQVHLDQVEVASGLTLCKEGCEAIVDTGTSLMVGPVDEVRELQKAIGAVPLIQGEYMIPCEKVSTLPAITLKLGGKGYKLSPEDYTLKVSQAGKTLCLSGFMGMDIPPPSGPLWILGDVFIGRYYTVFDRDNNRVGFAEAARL
Recombinant Cat D was expressed in CHO cells. The assay buffer for CathepsinD is 0.05 M citrate pH 3.5, 10% DMSO final, 5 mM CHAPS. […] The assays are effectively started by the addition of different FRET substrates (20 nM for Cat D) and the combination is incubated for one hour. The FRET assay is terminated with by addition of Tris buffer, which raises the pH to neutrality, and the fluorescence is determined. The FRET substrate is a peptide with commercially available fluorophore and quencher, on opposite sides of the BACE cleavage site. The Cat D substrate peptide sequence is based on sequence #1 of Table 1 from Gulnik et al. FEBS Letters v413 p 379-384 1997. Proteolytic cleavage of the FRET substrate releases quenching of fluorescence (Cat D excitation 500 nm and emission 580 nm).

Sequence of human recombinant BACE2 (Q9Y5Z0 63-518): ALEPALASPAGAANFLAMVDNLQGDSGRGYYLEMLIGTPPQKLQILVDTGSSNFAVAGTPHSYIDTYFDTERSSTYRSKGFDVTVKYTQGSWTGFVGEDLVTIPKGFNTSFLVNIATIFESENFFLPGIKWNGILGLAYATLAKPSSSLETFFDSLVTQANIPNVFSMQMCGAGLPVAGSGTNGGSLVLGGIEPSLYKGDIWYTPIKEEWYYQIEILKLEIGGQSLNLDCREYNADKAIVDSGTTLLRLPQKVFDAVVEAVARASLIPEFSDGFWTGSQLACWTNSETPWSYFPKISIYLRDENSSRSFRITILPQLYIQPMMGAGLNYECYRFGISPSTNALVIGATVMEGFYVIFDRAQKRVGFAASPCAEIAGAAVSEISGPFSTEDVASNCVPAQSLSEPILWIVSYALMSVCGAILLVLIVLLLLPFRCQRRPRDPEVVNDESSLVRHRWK
Sequence of human recombinant BACE1 (P56817 46-501): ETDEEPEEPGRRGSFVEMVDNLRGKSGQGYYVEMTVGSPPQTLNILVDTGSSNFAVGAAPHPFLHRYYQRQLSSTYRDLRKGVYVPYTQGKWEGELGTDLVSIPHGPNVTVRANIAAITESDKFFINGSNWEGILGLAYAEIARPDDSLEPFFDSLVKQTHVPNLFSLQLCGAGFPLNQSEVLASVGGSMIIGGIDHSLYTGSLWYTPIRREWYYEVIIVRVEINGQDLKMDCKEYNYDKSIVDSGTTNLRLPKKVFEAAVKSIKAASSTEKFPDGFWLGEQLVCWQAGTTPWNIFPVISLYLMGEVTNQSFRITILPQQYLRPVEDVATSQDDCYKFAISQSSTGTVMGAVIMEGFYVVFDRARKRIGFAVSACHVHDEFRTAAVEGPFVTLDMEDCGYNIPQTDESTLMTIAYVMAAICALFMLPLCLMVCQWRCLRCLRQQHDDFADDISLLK

Take `NC1=N[C@](CF)(c2cc(NC(=O)c3ccc(Cl)cn3)ccc2F)[C@@H]2[C@H]3CSC[C@]32S1` (mixture of isomers) [Example 752, N-(3-((4S,4aR,7aS)-2-amino-4-(fluoromethyl)-4a,4b,5,7-tetrahydro-4H-thieno[3′,4′:2,3]cyclopropa[1,2-e][1,3]thiazin-4-yl)-4-fluorophenyl)-5-chloropicolinamide and N-(3-((4S,4aS,7aR)-2-amino-4-(fluoromethyl)-4a,4b,5,7-tetrahydro-4H-thieno[3′,4′:2,3]cyclopropa[1,2-e][1,3]thiazin-4-yl)-4-fluorophenyl)-5-chloropicolinamide]: the IC50 (as a rule, the concentration that inhibits the measured activity by half) was determined as 0.0068 µM at human recombinant BACE1, 0.00709 µM on human recombinant BACE2, 0.0522 µM in assay [1] and 26.4 µM at Recombinant Cat D.

On to `COC[C@]12C[C@H]1[C@@](C)(c1cc(NC(=O)c3cnc(OC(C)C(F)(F)F)cn3)ccc1F)N=C(N)S2` (mixture of isomers) [Example 968, N-(3-((1S,5S,6S)-3-amino-1-(methoxymethyl)-5-methyl-2-thia-4-azabicyclo[4.1.0]hept-3-en-5-yl)-4-fluorophenyl)-5-((1,1,1-trifluoropropan-2-yl)oxy)pyrazine-2-carboxamide], for which the IC50 was 0.129 µM at human recombinant BACE1, 1.1 µM at human recombinant BACE2, 0.12 µM in assay [1] and greater than 400 µM at Recombinant Cat D.

Consider `C=C[C@@H](C)Oc1cnc(C(=O)Nc2ccc(F)c([C@@]3(C)N=C(N)S[C@@]4(COC)C[C@H]43)c2)cn1` (mixture of isomers) [Example 1051, N-(3-((1S,5S,6S)-3-amino-1-(methoxymethyl)-5-methyl-2-thia-4-azabicyclo[4.1.0]hept-3-en-5-yl)-4-fluorophenyl)-5-(((1R)-1-methyl-2-propen-1-yl)oxy)-2-pyrazinecarboxamide, N-(3-((1S,5S,6S)-3-amino-1-(methoxymethyl)-5-methyl-2-thia-4-azabicyclo[4.1.0]hept-3-en-5-yl)-4-fluorophenyl)-5-(((1S)-1-methyl-2-propen-1-yl)oxy)-2-pyrazinecarboxamide], for which the IC50 is 0.033 µM on human recombinant BACE1, 0.345 µM at human recombinant BACE2, 0.035 µM in assay [1] and greater than 400 µM at Recombinant Cat D.

With `COC[C@]12C[C@H]1[C@@](C)(c1cc(NC(=O)c3cnc(O[C@@H](C)C(F)(F)F)cn3)ccc1F)N=C(N)S2` (single isomer, unassigned) [Example 995], the IC50 on human recombinant BACE1 was determined as 0.101 µM; on human recombinant BACE2 it was 1.77 µM; in assay [1], 0.164 µM; at Recombinant Cat D, 1940 µM.

On to `COC[C@]12C[C@H]1[C@@](C)(c1cc(NC(=O)c3cnc(O[C@H](C)C(F)(F)F)cn3)ccc1F)N=C(N)S2` (single isomer, unassigned) [Example 996], for which the IC50 on human recombinant BACE1 worked out at 0.123 µM; on human recombinant BACE2, 0.807 µM; in assay [1] it was 0.12 µM; at Recombinant Cat D, 1640 µM.

Turning to `NC1=N[C@](CF)(c2cc(Nc3nncc4cc(Br)cnc34)ccc2F)C2C[C@@H]2S1` (stereo in doubt) [Example 67, N-(3-((1S,5S,6S)-3-amino-5-(fluoromethyl)-2-thia-4-azabicyclo[4.1.0]hept-3-en-5-yl)-4-fluorophenyl)-3-bromopyrido[2,3-d]pyridazin-8-amine], the IC50 on human recombinant BACE1 (BACE1 FRET enzyme assay) was found to be 0.0137 µM; at human recombinant BACE2 (BACE2 FRET enzyme assay), 0.00616 µM; in assay [1] (BACE1 cell-based assay) it was 0.0208 µM; at Recombinant Cat D (Cathepsin D FRET enzyme assay), 738 µM.

`NC1=N[C@](CF)(c2cc(Nc3nccc4nc(C(F)(F)F)cnc34)ccc2F)C2C[C@@H]2S1` (stereo in doubt) [Example 87, N-(3-((1S,5S,6S)-3-amino-5-(fluoromethyl)-2-thia-4-azabicyclo[4.1.0]hept-3-en-5-yl)-4-fluorophenyl)-2-(trifluoromethyl)pyrido[3,4-b]pyrazin-5-amine]: the IC50 worked out at 0.114 µM at human recombinant BACE1 (BACE1 FRET enzyme assay), 0.271 µM at human recombinant BACE2 (BACE2 FRET enzyme assay), 22.6 µM in assay [1] (BACE1 cell-based assay) and 2810 µM at Recombinant Cat D (Cathepsin D FRET enzyme assay).

Consider `COc1cnc2c(Nc3ccc(F)c([C@@]4(CF)N=C(N)S[C@H]5CC54)c3)ncnc2c1` (stereo in doubt) [Example 88, N-(3-((1S,5S,6S)-3-amino-5-(fluoromethyl)-2-thia-4-azabicyclo[4.1.0]hept-3-en-5-yl)-4-fluorophenyl)-7-methoxypyrido[3,2-d]pyrimidin-4-amine], for which the IC50 at human recombinant BACE1 (BACE1 FRET enzyme assay) is 0.0416 µM; on human recombinant BACE2 (BACE2 FRET enzyme assay), 0.137 µM; in assay [1] (BACE1 cell-based assay) it was 0.0264 µM; on Recombinant Cat D (Cathepsin D FRET enzyme assay) it was greater than 400 µM.

Take `Cc1cc(C#N)cnc1C(=O)Nc1cc(F)c(F)c([C@@]2(C)N=C(N)S[C@H]3C[C@H]32)c1` [Example 19, N-(3-((1S,5S,6S)-3-amino-5-methyl-2-thia-4-azabicyclo[4.1.0]hept-3-en-5-yl)-4,5-difluorophenyl)-5-cyano-3-methyl-2-pyridinecarboxamide]: the IC50 at human recombinant BACE1 (BACE1 FRET enzyme assay) came to 0.00545 µM; in assay [1] (BACE1 cell-based assay) it was 0.00431 µM; on Recombinant Cat D (Cathepsin D FRET enzyme assay) it was 669 µM.

Regarding `NC1=N[C@](CF)(c2cc(Nc3ncnc4cc(Cl)cnc34)cc(F)c2F)[C@@H]2C[C@@H]2S1` [Example 22, (1S,5S,6S)-5-(5-((7-Chloropyrido[3,2-d]pyrimidin-4-yl)amino)-2,3-difluorophenyl)-5-(fluoromethyl)-2-thia-4-azabicyclo[4.1.0]hept-3-en-3-amine], the IC50 on human recombinant BACE1 (BACE1 FRET enzyme assay) is 0.0149 µM; in assay [1] (BACE1 cell-based assay) it was 0.0533 µM; on Recombinant Cat D (Cathepsin D FRET enzyme assay), 331 µM.

Take `COC[C@]12C[C@H]1[C@@](C)(c1cc(Nc3nccc4cc(Cl)cnc34)cc(F)c1F)N=C(N)S2` [Example 24, N-(3-((1S,5S,6S)-3-amino-1-(methoxymethyl)-5-methyl-2-thia-4-azabicyclo[4.1.0]hept-3-en-5-yl)-4,5-difluorophenyl)-3-chloro-1,7-naphthyridin-8-amine]: the values for the IC50 (on human recombinant BACE1 (BACE1 FRET enzyme assay); in assay [1] (BACE1 cell-based assay); on Recombinant Cat D (Cathepsin D FRET enzyme assay)) were 0.00188 µM, 0.0191 µM and 189 µM, respectively.

As to `CCOC(=O)[C@]12C[C@H]1[C@@](C)(c1cc(Nc3nccc4cc(Cl)cnc34)cc(F)c1F)N=C(N)S2` [Example 25, (1S,5S,6S)-ethyl 3-amino-5-(5-((3-chloro-1,7-naphthyridin-8-yl)amino)-2,3-difluorophenyl)-5-methyl-2-thia-4-azabicyclo[4.1.0]hept-3-ene-1-carboxylate], the IC50 stood at 0.0025 µM on human recombinant BACE1 (BACE1 FRET enzyme assay), 0.571 µM in assay [1] (BACE1 cell-based assay) and 48.7 µM on Recombinant Cat D (Cathepsin D FRET enzyme assay).

As for `N#Cc1cnc2c(Nc3cc(F)c(F)c([C@@]4(CF)N=C(N)S[C@@H]5C[C@@H]54)c3)nccc2c1` [Example 27, 8-((3-((1R,5S,6R)-3-amino-5-(fluoromethyl)-2-thia-4-azabicyclo[4.1.0]hept-3-en-5-yl)-4,5-difluorophenyl)amino)-1,7-naphthyridine-3-carbonitrile], the IC50 at human recombinant BACE1 (BACE1 FRET enzyme assay) was 0.0235 µM; in assay [1] (BACE1 cell-based assay) it was 0.013 µM; at Recombinant Cat D (Cathepsin D FRET enzyme assay), 33.5 µM.

With `C#CCCOc1cnc(C(=O)Nc2ccc(F)c([C@@]3(C)N=C(N)S[C@@]4(COC)C[C@H]43)c2)cn1` [Example 1048, N-(3-((1S,5S,6S)-3-amino-1-(methoxymethyl)-5-methyl-2-thia-4-azabicyclo[4.1.0]hept-3-en-5-yl)-4-fluorophenyl)-5-(3-butyn-1-yloxy)-2-pyrazinecarboxamide], the results for the IC50 (on human recombinant BACE1; at human recombinant BACE2; in assay [1]) were 0.0078 µM, 0.152 µM and 0.0095 µM, respectively.
